Experimental data as given in patent publication US20130203649A1, “INHIBITORS OF TLR SIGNALING BY TARGETING TIR DOMAIN INTERFACES” (UNIVERSITY OF MARYLAND, BALTIMORE, priority 2012, published 2013).
Residues, ends and D or L forms follow the SMILES beside them. No end group written: not given here.

Experiments:
Type in all cases: cell-based
TLR4 [1] = assay: LPS-induced MAPK (ERK, JNK, p38) activation in mouse macrophages (Western analysis); settings: for LPS-induced activation of p38 and ERK MAPKs: 20 μM peptide, LPS 30 min; for LPS-induced activation of ERK and JNK MAPKs: peritoneal macrophages (FIG. 14B)
Protocol: Cellular protein extracts were isolated by addition of 240 μL per well cold lysate buffer (20 mM Tris, 50 mM NaCl, 1.5 mM MgCl2, 2 mM EDTA, 10 mM NaF, 2 Mm DTT, 1 mM Na3VO4, 1% Triton). Cells were incubated with lysis solution for 30 min on agitator at 4° C. Lysate was then collected and centrifuged at 14,000 g for 10 minutes at 4° C. After quantification using BioRad protein assay, protein samples were added to Laemmli buffer and then boiled for 10 min. Samples were then resolved by SDS-10% PAGE in Tris/glycine/SDS buffer (25 mM Tris, 250 mM glycine, 0.1% SDS), and transferred onto Immobilon P transfer membranes (Millipore, Bedford, Mass.) (100 V, 1.5 h, 4° C.). Membranes were blocked for 1 h in TBS-T (20 mM Tris-HCl, 150 mM NaCl, 0.1% Tween 20) containing 5% nonfat milk, then probed for overnight at 4° C. with the respective antibodies (Abs) (dilution 1:1000 in TBS-T with 2% BSA). After washing in TBS-T, membranes were incubated with secondary HRP-conjugated, donkey anti-rabbit IgG (1:10,000 dilution in TBS-T with 5% nonfat milk) for 1 h at room temperature. Membranes washed five times in TBS-T before development with ECL reagents (GE Healthcare) according to manufacturer's directions.
HEK293T cells were transfected with indicated plasmids using Superfect Transfection Reagent (Qiagen). Twenty-four hours posttransfection, the cells were lysed using the buffer containing 20 mM HEPES (pH 7.4), 150 mM NaCl, 10 mM NaF, 2 mM Na3VO4, 1 mM EDTA, 1 mM EGTA, 0.5% Triton X-100, 0.1 M DTT, 1 mM PMSF, and protease inhibitor mixture (Roche, Indianapolis, Ind.). Rabbit Ab against phospho-ERK, phospho-JNK, MyD88 (D80F5), STAT1-Y701, total STAT1, and GAPDH were purchased from Cell Signaling Technology (Beverly, Mass.). Rabbit anti-phospho-p38 Ab was purchased from Promega (Madison, Wis.). Goat anti-TLR4 (M−16), rabbit anti-TLR4 (H-80), anti-HA-HRP (F-7), and rabbit anti-b-actin Ab were purchased from Santa Cruz Biotechnology. Mouse anti-Flag M2 and rabbit anti-HA Ab were from Sigma-Aldrich. GFP Ab (A1122) was from Invitrogen. Protein was quantified using Bio-Rad protein quantification kit. Equal amount of protein was loaded and analyzed by 10% SDS-PAGE and immunoblotting. The cell extracts containing equal amount of protein were incubated with 1 μg Ab for 2 h, followed by 4-h incubation with 25 μl protein G agarose beads (Roche); the beads were then washed four times with lysis buffer, boiled in […] sample loading buffer, and analyzed by immunoblotting.
We next examined whether TRAM peptides inhibit the TLR4-mediated p38, ERK, and JNK MAPK activation. Murine macrophages pretreated with peptides for 30 min were challenged with LPS. Cell lysates were collected 30 min post-stimulation and analyzed for MAPK phosphorylation by Western analysis. Consistent with peptide effects on steady-state mRNA, both TM4 and TM6 inhibited activation of all three MAPKs (FIG. 5C). The inhibition of MAPKs by TM4 or TM6 was long lasting; it persisted for at least 1 h after LPS stimulation (data not shown). To characterize further the effects of TRAM peptides on MAPKs, murine macrophages were treated with TRAM peptides, but not challenged by LPS.

TLR4 [2] = assay: LPS-induced cytokine mRNA expression in mouse macrophages (real-time RT-PCR); settings: for LPS-induced TNF-α and IL-1β mRNA expression: 20 μM peptide 30 min, LPS 1 hour (FIG. 13A); for LPS-induced cytokine mRNA induction: peritoneal macrophages (FIG. 14A)
Protocol: (§1) C57BL/6J mice were obtained from The Jackson Laboratory (Bar Harbor, Me.). Primary peritoneal macrophages were obtained by peritoneal lavage 4 days after intraperitoneal injection (3 ml) of sterile 3% thioglycolate broth. Washed cells were resuspended in RPMI 1640 which contained 2% FBS, 1% penicillin:streptomycin and 2 mM L-glutamine. After plating, cells were incubated overnight at 37° C. and then washed with PBS to remove non-adherent cells. Cells were exposed to peptides 30 min before stimulation with a TLR agonist.
(§2) Total cellular RNA was isolated using Tripure from Roche (San Francisco, Calif.) following manufacture's protocol. RNA was then reverse transcribed using AMV Reverse Transcriptase from Promega (Madison, Wis.) with poly-T priming as per manufacturer's directions. cDNA was then quantified by real-time PCR using Applied Biosystems Fast SYBR Green PCR Master Mix and an ABI Prism 7500HT cycler. Primers used for detection: hypoxanthine phosphoribosyltransferase (HPRT) (forward: […] (SEQ ID NO:51), reverse: […] (SEQ ID NO:52)), TNFα (forward: […] (SEQ ID NO:53), reverse: […] (SEQ ID NO:54)), IL-1β (forward: […] (SEQ ID NO:55), reverse: […] (SEQ ID NO:56)), IFNβ (forward: […] (SEQ ID NO:57), reverse: CTCGGACCACCATCCAGG (SEQ ID NO:58)) and RANTES (forward: […] (SEQ ID NO:59), reverse: […] (SEQ ID NO:60)). The primers were designed using Primer Express 2.0 (Applied Biosystems). Using HPRT as reference, the ΔCt method was used to calculate relative gene expression. One-way ANOVA was preformed, as well as Dunnett's multiple comparison post hoc test with a p≦0.01 selected as the level of significance.
Total RNA was isolated with Nucleospin RNA II kits (Macherey-Nagel, Bethlehem, Pa.), followed by DNase digestion. cDNA was synthesized from 1 μg RNA using Goscript transcriptase (Promega), and subjected to real-time PCR with gene-specific primers for HPRT, TNF-α, IL-1β, IFNβ, and RANTES on H7900 ABI system using Fast SYBR Green master mix (Applied Biosystems, Foster City, Calif.).
To evaluate peptide-inhibitory activities, we first measured LPS-induced cytokine mRNA expression. […] […] Decoy peptide TM4 is derived from the BB loop of TRAM TIR; we previously identified this peptide as an effective TLR4 inhibitor (19).

TLR4 [3] = assay: Inhibition of TLR4 signaling in thioglycollate-elicited mouse macrophages (effective concentration, overall inhibitory activity); settings: TLR4 pathway; thioglycollate-elicited mouse macrophages
Protocol: as §1
TIRAP/Mal functions to facilitate MyD88 recruitment to the activated TLR4 and TLR2, presumably through a simultaneous interaction with receptor and MyD88 TIR domains. Therefore, multiple TIR:TIR interaction sites are expected in TIRAP TIR. The decoy peptide approach was used to obtain leads on the functional protein-protein interfaces within TIRAP/Mal, a TLR adapter protein. To this end, eleven TIRAP TIR-derived decoy peptides were designed to be structurally homologous to the TLR4 TIR-derived decoy peptides used previously (1), so that each peptide represents a non-fragmented patch of the TIRAP TIR surface, with the entire domain encompassed by the set of peptides. The TIRAP TIR-derived decoy peptides were synthesized in tandem with the cell-permeating sequence of Antennapedia homeodomain (21) and each peptide was tested for the ability to inhibit TLR4 and TLR2 signaling in primary mouse macrophages. Peptide sequences and the structural regions they represent are shown in reference (30).
(§3) C57BL/6J mice were obtained from The Jackson Laboratory (BarHarbor, Me.). Harvesting, culturing, and stimulation of peritoneal macrophages were described in previous publications (1, 18, 19). Escherichia coli K235 LPS (34) was used at the final concentration of 100 ng/ml. The 2,3-bis(palmitoyloxy)-(2-RS)-propyl-N-palmitoyl-(R)-Cys-Ser-Lys4-OH (P3C) and S[2,3-bis(palmitoyloxy)-(2-RS)-propyl]-[R]-Cys-Ser-Lys4-OH (P2C) (EMC Microcollections, Tubingen, Germany) were used at 500 and 50 ng/ml, respectively. Oligonucleotide (ODN) 1668 and low m.w. polyinosinic-polycytidylic acid [poly(I:C)] in complex with LyoVec were obtained from InvivoGen; these agonists were used at 2.5 μM and 400 ng/ml, respectively.

TLR2 = target: T1, TLR2 (Mus musculus, UniProt Q9QUN7); assay: Inhibition of TLR2 signaling in thioglycollate-elicited mouse macrophages (effective concentration, TLR2 agonists P3C/P2C); settings: for IL-1β expression induced by TLR2 agonists: P2C and P3C (FIG. 16A, B); for Effective conc.: TLR2 pathway, thioglycollate-elicited mouse macrophages
T1 construct: Primary peritoneal macrophages were obtained by peritoneal lavage; endogenous in cells; host or cells: thioglycollate-elicited mouse peritoneal macrophages
T1 sequence (Q9QUN7 25-784): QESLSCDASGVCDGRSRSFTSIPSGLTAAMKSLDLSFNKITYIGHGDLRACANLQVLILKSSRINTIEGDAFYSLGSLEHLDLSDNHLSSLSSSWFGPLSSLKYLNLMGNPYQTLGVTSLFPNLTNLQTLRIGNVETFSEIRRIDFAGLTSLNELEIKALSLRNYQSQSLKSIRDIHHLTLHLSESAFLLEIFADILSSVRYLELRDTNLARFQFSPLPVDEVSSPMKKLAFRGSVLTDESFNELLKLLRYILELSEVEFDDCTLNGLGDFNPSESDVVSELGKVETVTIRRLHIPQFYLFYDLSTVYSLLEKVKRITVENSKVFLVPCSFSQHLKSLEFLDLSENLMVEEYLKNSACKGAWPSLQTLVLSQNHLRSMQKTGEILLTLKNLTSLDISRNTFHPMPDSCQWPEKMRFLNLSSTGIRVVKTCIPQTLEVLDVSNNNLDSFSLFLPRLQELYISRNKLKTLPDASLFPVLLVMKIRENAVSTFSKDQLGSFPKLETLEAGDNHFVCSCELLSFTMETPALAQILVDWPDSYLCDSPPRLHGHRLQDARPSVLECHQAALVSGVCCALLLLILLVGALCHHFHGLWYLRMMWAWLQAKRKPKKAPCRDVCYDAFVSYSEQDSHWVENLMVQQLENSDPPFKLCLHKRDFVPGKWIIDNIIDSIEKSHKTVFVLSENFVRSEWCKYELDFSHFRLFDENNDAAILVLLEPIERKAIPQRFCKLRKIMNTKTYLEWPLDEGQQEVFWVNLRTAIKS
Protocol: as §1
(§4) Protein-free Escherichia coli K235 LPS was used at final concentration of 10 ng/ml to stimulate cells. S-[2,3-bis(palmitoyloxy)-(2-RS)-propyl]-N-palmitoyl-(R)-Cys-Ser-Lys4-OH (P3C) and S-[2,3-bis(palmitoyloxy)-(2-RS)-propyl]-[R]-Cys-Ser-Lys4-OH (P2C) were purchased from EMC microcollections GmbH (Tubingen, Germany) and used for cell stimulation at 500 and 50 ng/ml, respectively. Phospho-ERK1/2 and phospho-JNK1/2 rabbit Abs were obtained from Cell Signaling Technology, Inc. β-actin rabbit Ab were from SantaCruz Biotechnology, Inc.
(§5) Because of the role TRAP plays in TLR2 signaling, TIRAP TIR-derived decoy peptide effects on TLR2-induced cytokine mRNA expression were examined. Thioglycollate-elicited mouse macrophages were stimulated either by P2C, an agonist that induces signaling through TLR2/TLR6 heterodimerization, or P3C, a TLR2/TLR1 agonist, and effects of TIRAP TR-derived decoy peptides on induction of cytokine mRNA were examined. […] To confirm the inhibitory effect of TR3 and TR6 on P3C-induced signaling, IL-6 and TNF-α concentration was measured in macrophage supernatants collected 5 h after stimulation of cells with P3C. […] Concordantly, both TR3 and TR6 diminished the P3C-induced ERK phosphorylation (FIG. 3D).
as §3

TLR2/TLR6 heterodimer = target: T2, TLR2/TLR6 heterodimer (Mus musculus, UniProt Q9QUN7); assay: P2C-induced cytokine mRNA expression in mouse macrophages; settings: peptide 30 min; P2C 50 ng/ml 1 hour (FIG. 15B)
T2 construct: endogenous in cells; host or cells: thioglycollate-elicited mouse peritoneal macrophages
T2 sequence (Q9QUN7 25-784, one chain of several): as the sequence (Q9QUN7 25-784) above
Description: as §2, §4, §5, §3

TLR2/TLR1 heterodimer = target: T3, TLR2/TLR1 heterodimer (Mus musculus, UniProt Q9QUN7); assay: P3C-induced cytokine mRNA expression in mouse macrophages; settings: peptide 30 min; P3C 500 ng/ml 1 hour (FIG. 15A)
T3 construct: endogenous in cells; host or cells: thioglycollate-elicited mouse peritoneal macrophages
T3 sequence (Q9QUN7 25-784, one chain of several): as the sequence (Q9QUN7 25-784) above
Description: as §2, §4, §5, §3

| Compound | Effective conc. (TLR4 [3]) [µM] | Effective conc. (TLR2) [µM] | LPS-induced activation of ERK and JNK MAPKs (TLR4 [1]) | LPS-induced cytokine mRNA induction (TLR4 [2]) | further results |
| --- | --- | --- | --- | --- | --- |
| RQIKIWFQNRRMKWKKEQTDYRLKLC [Peptide M3] | 20 |  |  |  | LPS-induced activation of p38 and ERK MAPKs (TLR4 [1]): inhibit; LPS-induced TNF-α and IL-1β mRNA expression (TLR4 [2]): inhibit |
| RQIKIWFQNRRMKWKKIASELIEKRCRRM [Peptide M5] | 20 |  |  |  | LPS-induced activation of p38 and ERK MAPKs (TLR4 [1]): inhibit; LPS-induced TNF-α and IL-1β mRNA expression (TLR4 [2]): inhibit |
| RQIKIWFQNRRMKWKKLHKRDFVPGKWIID [Peptide 2BB] |  | 40 |  |  | IL-1β expression induced by TLR2 agonists (TLR2): inhibits |
| RQIKIWFQNRRMKWKKLRQQVELYRLLSR [Peptide 4R9] | 20 |  | potently inhibit | potently inhibit |  |
| RQIKIWFQNRRMKWKKAGCKKYSRGESIYD [Peptide 4R1] | 20 |  | potently inhibit | potently inhibit |  |
| RQIKIWFQNRRMKWKKPQRFCKLRKIMNT [Peptide 2R9] |  | 40 |  |  | Cytokine mRNA expression induced by P2C (TLR2/TLR6 heterodimer): inhibit; Cytokine mRNA expression induced by P3C (TLR2/TLR1 heterodimer): inhibit; TLR2-induced ERK activation (TLR2; FIG. 16C): strongly inhibits |
| RQIKIWFQNRRMKWKKSDRDVLPGTCVWS [Peptide M4] | 20 |  |  |  | LPS-induced activation of p38 and ERK MAPKs (TLR4 [1]): inhibit; LPS-induced TNF-α and IL-1β mRNA expression (TLR4 [2]): inhibit |
| RQIKIWFQNRRMKWKKENSDPPFKLC [Peptide 2R3] |  | 40 |  |  | Cytokine mRNA expression induced by P3C (TLR2/TLR1 heterodimer): inhibit |
| RQIKIWFQNRRMKWKKEEGVPRFHLC [Peptide 4R3] | 20 |  | potently inhibit | potently inhibit |  |
| RQIKIWFQNRRMKWKKEPIERKAIPQRFCK [Peptide 2DD-αD] |  | 40 |  |  | IL-1β expression induced by TLR2 agonists (TLR2): potently inhibits |
| CC[C@H](C)[C@H](NC(=O)[C@H](CCCCN)NC(=O)[C@@H](NC(=O)[C@H](CCC(N)=O)NC(=O)[C@@H](N)CCCNC(=N)N)[C@@H](C)CC)C(=O)N[C@@H](Cc1c[nH]c2ccccc12)C(=O)N[C@@H](Cc1ccccc1)C(=O)N[C@@H](CCC(N)=O)C(=O)N[C@@H](CC(N)=O)C(=O)N[C@@H](CCCNC(=N)N)C(=O)N[C@@H](CCCNC(=N)N)C(=O)N[C@@H](CCSC)C(=O)N[C@@H](CCCCN)C(=O)N[C@@H](Cc1c[nH]c2ccccc12)C(=O)N[C@@H](CCCCN)C(=O)N[C@@H](CCCCN)C(=O)N[C@@H](CCCNC(=N)N)C(=O)N[C@@H](CCCCN)C(=O)N1CCC[C@H]1C(=O)N[C@@H](CCCCN)C(=O)N[C@@H](CCCCN)C(=O)N[C@@H](C)C(=O)N1CCC[C@H]1C(=O)N[C@@H](CS)C(=O)N[C@@H](CCCNC(=N)N)C(=O)N[C@@H](CC(=O)O)C(=O)N[C@H](C(=O)N[C@@H](CS)C(=O)N[C@@H](Cc1ccc(O)cc1)C(=O)N[C@@H](CC(=O)O)C(=O)O)C(C)C [Peptide 2R1] (H-RQIKIWFQNRRMKWKKRKPKKAPCRDVCYD-OH; N-terminus and C-terminus assumed) |  | 40 |  |  | Cytokine mRNA expression induced by P2C (TLR2/TLR6 heterodimer): inhibit; Cytokine mRNA expression induced by P3C (TLR2/TLR1 heterodimer): inhibit |
| RQIKIWFQNRRMKWKKHIFWRRLKNALLD [4R11/4αE] | 20 |  | potently inhibit | potently inhibit |  |
